# Experimental data reported in ChEMBL document CHEMBL5665443, “Enzyme Inhibitor Single Concentration assay results for EUbOPEN Chemogenomics Library” (2024).
# How the values were obtained:
# [1] = molecular target: T1, Adenine DNA glycosylase (Homo sapiens) (UniProt Q9UIF7);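 further: human MUTYH activity read as 594 nm fluorescence from cleavage and release of a quenched DNA duplex, coupled with APE1 for strand incision, lower signal meaning inhibition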
# T1 sequence (whole entry): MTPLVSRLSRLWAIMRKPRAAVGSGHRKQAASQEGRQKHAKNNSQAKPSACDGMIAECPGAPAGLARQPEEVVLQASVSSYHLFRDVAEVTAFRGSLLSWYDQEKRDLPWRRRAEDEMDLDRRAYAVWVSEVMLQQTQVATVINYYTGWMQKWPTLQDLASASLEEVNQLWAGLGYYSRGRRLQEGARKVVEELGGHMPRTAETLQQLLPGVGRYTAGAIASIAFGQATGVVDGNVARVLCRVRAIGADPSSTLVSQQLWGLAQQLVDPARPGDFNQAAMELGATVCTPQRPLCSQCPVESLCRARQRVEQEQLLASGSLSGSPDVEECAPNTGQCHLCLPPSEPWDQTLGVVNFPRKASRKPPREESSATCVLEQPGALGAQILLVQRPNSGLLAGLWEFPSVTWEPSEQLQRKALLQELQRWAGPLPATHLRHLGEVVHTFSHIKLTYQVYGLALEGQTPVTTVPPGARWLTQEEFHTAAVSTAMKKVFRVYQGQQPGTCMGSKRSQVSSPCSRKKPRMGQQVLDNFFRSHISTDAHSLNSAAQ
# Description: Inhibition of MUTYH by quantifying inhibition of MUTYH-mediated cleavage and dissociation of quenched duplex DNA oligonucleotides, measured as fluorescence at 594 nm. To generate a functional strand incision and increase turn-over this assay is coupled to APE1.
# [2] = molecular target: T2, Endonuclease III-like protein 1 (Homo sapiens) (UniProt P78549); settings: Hit No;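 further: enzyme assay tracking NTHL1 cutting and release of a quenched double-stranded DNA oligo substrate, read as fluorescence at 594 nm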
# T2 sequence (whole entry): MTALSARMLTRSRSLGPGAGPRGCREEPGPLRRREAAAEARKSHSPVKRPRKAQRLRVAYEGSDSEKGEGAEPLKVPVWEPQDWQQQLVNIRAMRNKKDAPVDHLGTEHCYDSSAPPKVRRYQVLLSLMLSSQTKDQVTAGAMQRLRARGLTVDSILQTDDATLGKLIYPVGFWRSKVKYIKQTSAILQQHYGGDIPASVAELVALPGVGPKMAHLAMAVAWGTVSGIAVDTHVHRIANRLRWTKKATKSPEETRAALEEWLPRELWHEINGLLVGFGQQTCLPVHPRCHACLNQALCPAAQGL
# Description: Inhibition of NTHL1 by quantifying inhibition of NTHL1-mediated cleavage and dissociation of quenched duplex DNA oligonucleotides, measured as fluorescence at 594 nm.
# [3] = molecular target: G/T mismatch-specific thymine DNA glycosylase (Homo sapiens) (UniProt Q13569); settings: Hit No;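 further: human TDG cleavage of quenched duplex DNA oligonucleotides coupled to APE1, strand release read as fluorescence at 594 nm, inhibition of TDG activity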
# Chain of G/T mismatch-specific thymine DNA glycosylase (Homo sapiens) (Q13569 whole entry): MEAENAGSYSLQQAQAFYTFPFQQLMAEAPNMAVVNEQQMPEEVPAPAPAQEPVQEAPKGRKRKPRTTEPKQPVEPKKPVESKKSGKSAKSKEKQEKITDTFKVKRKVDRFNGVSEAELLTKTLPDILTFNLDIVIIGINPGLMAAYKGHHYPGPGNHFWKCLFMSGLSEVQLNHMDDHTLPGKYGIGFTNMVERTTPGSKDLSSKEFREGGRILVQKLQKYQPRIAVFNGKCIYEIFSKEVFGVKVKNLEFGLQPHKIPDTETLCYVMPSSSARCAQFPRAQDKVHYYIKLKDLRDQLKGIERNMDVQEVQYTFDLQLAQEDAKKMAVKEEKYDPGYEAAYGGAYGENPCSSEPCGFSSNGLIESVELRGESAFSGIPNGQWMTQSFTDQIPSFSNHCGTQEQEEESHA
# Description: Inhibition of TDG by quantifying inhibition of TDG-mediated cleavage and dissociation of quenched duplex DNA oligonucleotides, measured as fluorescence at 594 nm. To generate a functional strand incision and increase turn-over this assay is coupled to APE1.
# [4] = molecular target: Uracil-DNA glycosylase (Homo sapiens) (UniProt P13051); settings: Hit No;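 further: UNG excision on a quenched double-stranded DNA oligo probe, with APE1 added for strand incision and turnover, read as fluorescence at 594 nm as strands separate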
# Chain of Uracil-DNA glycosylase (Homo sapiens) (P13051 whole entry): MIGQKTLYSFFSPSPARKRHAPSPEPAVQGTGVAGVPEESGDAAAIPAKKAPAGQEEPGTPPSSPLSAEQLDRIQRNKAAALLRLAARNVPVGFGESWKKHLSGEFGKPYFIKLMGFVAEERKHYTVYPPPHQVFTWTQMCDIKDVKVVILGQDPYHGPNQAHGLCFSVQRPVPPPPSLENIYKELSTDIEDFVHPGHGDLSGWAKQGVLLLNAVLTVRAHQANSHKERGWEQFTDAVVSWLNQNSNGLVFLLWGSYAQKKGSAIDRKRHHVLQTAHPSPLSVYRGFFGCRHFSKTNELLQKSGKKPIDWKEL
# Description: Inhibition of UNG by quantifying inhibition of UNG-mediated cleavage and dissociation of quenched duplex DNA oligonucleotides, measured as fluorescence at 594 nm. To generate a functional strand incision and increase turn-over this assay is coupled to APE1.
# [5] = molecular target: T3, Endonuclease 8-like 2 (Homo sapiens) (UniProt Q969S2);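 further: fluorescence at 594 nm reports NEIL2 cutting and release of a quenched double-stranded DNA oligo substrate, reduced signal read as inhibition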
# T3 sequence (whole entry): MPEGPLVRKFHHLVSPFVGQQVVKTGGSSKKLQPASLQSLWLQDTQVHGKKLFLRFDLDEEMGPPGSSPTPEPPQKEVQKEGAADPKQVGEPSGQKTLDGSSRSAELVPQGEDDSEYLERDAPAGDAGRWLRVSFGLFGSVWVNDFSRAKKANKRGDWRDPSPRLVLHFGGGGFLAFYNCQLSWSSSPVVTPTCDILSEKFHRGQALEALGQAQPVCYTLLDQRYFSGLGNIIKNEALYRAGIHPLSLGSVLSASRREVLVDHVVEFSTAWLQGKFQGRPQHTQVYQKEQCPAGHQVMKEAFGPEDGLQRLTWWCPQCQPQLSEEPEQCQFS
# Description: Inhibition of NEIL2 by quantifying inhibition of NEIL2-mediated cleavage and dissociation of quenched duplex DNA oligonucleotides, measured as fluorescence at 594 nm.
# [6] = molecular target: T4, Single-strand selective monofunctional uracil DNA glycosylase (Homo sapiens) (UniProt Q53HV7); settings: Hit No;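 further: enzymatic SMUG1 assay coupled with APE1, reading fluorescence at 594 nm released when a quenched double-stranded DNA oligonucleotide substrate is cleaved and separated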
# T4 sequence (whole entry): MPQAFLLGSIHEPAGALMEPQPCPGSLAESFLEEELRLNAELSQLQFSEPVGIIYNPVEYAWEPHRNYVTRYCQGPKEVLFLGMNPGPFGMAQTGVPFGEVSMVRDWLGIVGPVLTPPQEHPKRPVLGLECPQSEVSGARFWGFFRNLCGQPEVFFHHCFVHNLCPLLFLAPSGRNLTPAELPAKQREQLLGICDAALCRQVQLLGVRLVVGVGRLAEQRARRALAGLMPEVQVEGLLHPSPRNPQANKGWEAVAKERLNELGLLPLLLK
# Description: Inhibition of SMUG1 by quantifying inhibition of SMUG1-mediated cleavage and dissociation of quenched duplex DNA oligonucleotides, measured as fluorescence at 594 nm. To generate a functional strand incision and increase turn-over this assay is coupled to APE1.
# [7] = molecular target: Methyl-CpG-binding domain protein 4 (Homo sapiens) (UniProt O95243); settings: Hit No;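 further: MBD4 activity read as fluorescence at 594 nm from cleavage and release of a quenched duplex DNA oligonucleotide, with APE1 coupled to incise the strand and raise turnover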
# Chain of Methyl-CpG-binding domain protein 4 (Homo sapiens) (O95243 whole entry, the tested form may be a part): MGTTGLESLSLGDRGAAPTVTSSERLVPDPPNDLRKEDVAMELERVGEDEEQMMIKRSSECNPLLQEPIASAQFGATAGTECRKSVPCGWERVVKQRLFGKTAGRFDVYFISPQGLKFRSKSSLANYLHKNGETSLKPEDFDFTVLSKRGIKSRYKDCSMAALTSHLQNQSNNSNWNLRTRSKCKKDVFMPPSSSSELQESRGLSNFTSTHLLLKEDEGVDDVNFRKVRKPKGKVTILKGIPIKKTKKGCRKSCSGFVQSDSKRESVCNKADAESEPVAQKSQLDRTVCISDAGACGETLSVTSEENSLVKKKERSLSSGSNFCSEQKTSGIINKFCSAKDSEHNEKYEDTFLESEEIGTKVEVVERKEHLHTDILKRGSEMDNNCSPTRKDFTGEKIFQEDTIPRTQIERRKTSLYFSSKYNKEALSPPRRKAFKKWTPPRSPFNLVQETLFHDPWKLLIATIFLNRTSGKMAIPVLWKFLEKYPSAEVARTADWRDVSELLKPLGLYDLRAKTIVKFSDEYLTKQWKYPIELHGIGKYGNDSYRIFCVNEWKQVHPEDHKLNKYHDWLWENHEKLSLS
# Description: Inhibition of MBD4 by quantifying inhibition of MBD4-mediated cleavage and dissociation of quenched duplex DNA oligonucleotides, measured as fluorescence at 594 nm. To generate a functional strand incision and increase turn-over this assay is coupled to APE1.
# [8] = molecular target: N-glycosylase/DNA lyase (Homo sapiens) (UniProt O15527); settings: Hit No;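 further: OGG1 cleavage of a quenched duplex DNA oligonucleotide, coupled to APE1 for strand incision, read as fluorescence at 594 nm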
# Chain of N-glycosylase/DNA lyase (Homo sapiens) (O15527 whole entry): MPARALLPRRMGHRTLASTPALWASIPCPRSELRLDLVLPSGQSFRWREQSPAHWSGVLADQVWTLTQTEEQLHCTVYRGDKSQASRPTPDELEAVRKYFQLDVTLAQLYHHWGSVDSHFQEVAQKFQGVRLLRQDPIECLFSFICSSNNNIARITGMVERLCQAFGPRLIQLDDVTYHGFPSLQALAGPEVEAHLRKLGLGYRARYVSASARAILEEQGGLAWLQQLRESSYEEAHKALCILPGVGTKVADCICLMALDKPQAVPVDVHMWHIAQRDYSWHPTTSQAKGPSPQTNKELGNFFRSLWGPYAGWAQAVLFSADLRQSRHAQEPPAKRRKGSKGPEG
# Description: Inhibition of OGG1 by quantifying inhibition of OGG1-mediated cleavage and dissociation of quenched duplex DNA oligonucleotides, measured as fluorescence at 594 nm. To generate a functional strand incision and increase turn-over this assay is coupled to APE1.
# [9] = molecular target: Endonuclease 8-like 1 (Homo sapiens) (UniProt Q96FI4); settings: Hit No;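 further: fluorescence at 594 nm from quenched duplex DNA oligonucleotides released by NEIL1 cleavage and strand separation, reported as reduction of this enzyme activity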
# Chain of Endonuclease 8-like 1 (Homo sapiens) (Q96FI4 whole entry): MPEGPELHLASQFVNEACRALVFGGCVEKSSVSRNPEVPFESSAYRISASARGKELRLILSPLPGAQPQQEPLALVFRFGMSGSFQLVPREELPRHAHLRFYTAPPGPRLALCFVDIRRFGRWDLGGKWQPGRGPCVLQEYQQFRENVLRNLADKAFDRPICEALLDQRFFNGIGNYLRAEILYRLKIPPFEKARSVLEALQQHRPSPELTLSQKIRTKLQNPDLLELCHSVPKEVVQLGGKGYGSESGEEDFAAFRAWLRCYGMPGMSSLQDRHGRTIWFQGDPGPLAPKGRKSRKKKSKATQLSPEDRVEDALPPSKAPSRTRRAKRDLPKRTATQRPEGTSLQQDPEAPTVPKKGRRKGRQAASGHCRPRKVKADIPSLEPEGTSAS
# Description: Inhibition of NEIL1 by quantifying inhibition of NEIL1-mediated cleavage and dissociation of quenched duplex DNA oligonucleotides, measured as fluorescence at 594 nm.
# [10] = Compound Concentration 10.0 uM, Hit No
# [11] = Compound Concentration 1.0 uM, Hit No
# [12] = Compound Concentration 1.0 uM, Hit Yes
Structure (SMILES),"inhibition [1, 10] [%]",inhibition ([2]; Compound Concentration 10.0 uM) [%],inhibition ([3]; Compound Concentration 10.0 uM) [%],inhibition ([4]; Compound Concentration 10.0 uM) [%],"inhibition [5, 10] [%]",inhibition ([6]; Compound Concentration 10.0 uM) [%],inhibition ([7]; Compound Concentration 10.0 uM) [%],inhibition ([8]; Compound Concentration 10.0 uM) [%],inhibition ([9]; Compound Concentration 10.0 uM) [%],inhibition ([2]; Compound Concentration 1.0 uM) [%],inhibition ([3]; Compound Concentration 1.0 uM) [%],inhibition ([4]; Compound Concentration 1.0 uM) [%],"inhibition [5, 11] [%]",inhibition ([6]; Compound Concentration 1.0 uM) [%],inhibition ([7]; Compound Concentration 1.0 uM) [%],inhibition ([9]; Compound Concentration 1.0 uM) [%],"inhibition [1, 11] [%]",inhibition ([8]; Compound Concentration 1.0 uM) [%],"inhibition [1, 12] [%]","inhibition [5, 12] [%]"
CC(C)c1cc(Oc2c(Cl)cc(-n3nc(C#N)c(=O)[nH]c3=O)cc2Cl)n[nH]c1=O,14,7.26,50.8,-0.0293,7.67,5.92,53.3,28.8,-7.26,–,–,–,–,–,–,–,–,–,–,–
CCC(=N\O)/C(C)=C/c1ccc(F)c(C)c1,-0.87,-5.23,41.4,3.87,0.276,22.6,64.7,16.2,-2.41,–,–,–,–,–,–,–,–,–,–,–
Cc1ccc(-c2cnc([C@@]3(O)CC[C@H](C(=O)O)C(C)(C)C3)s2)cc1Nc1cccc(C(F)(F)F)n1,13.4,-1.95,58.3,2.77,–,11.6,60.9,5.44,-8.92,-6.89,36.9,-2.23,1.58,6.55,1.64,-1.05,–,–,–,–
Cc1cc([C@@H](C)Nc2ccccc2C(=O)O)c2nc(N3CCOCC3)cc(=O)n2c1,10.5,-1.31,50.8,3.71,2.93,20.9,-6.46,12,0.798,–,–,–,–,–,–,–,–,–,–,–
CS(=O)(=O)N1CCCC(NC(=O)[C@H](CCC2CCCCC2)NC(=O)c2ccc(CNC(=O)c3cnc4ccccn34)cc2)C1 (stereo partly drawn),–,–,–,–,–,–,–,–,–,7.17,41.5,0.321,-2.03,10.6,27.9,-0.0491,-1.13,-1.52,–,–
C[C@]1(O)C[C@@H](c2nc(-c3ccc4ccc(-c5ccccc5)nc4c3)c3c(N)nccn32)C1,25.7,10.6,57.9,7.32,12.6,18.4,2.7,-7.95,4.89,–,–,–,–,–,–,–,–,–,–,–
CNCc1ccccc1-c1csc([C@H](C)Nc2nc(C)nc3cc(OC)c(OC)cc23)c1,–,–,–,–,–,–,–,–,–,2.66,97.8,6.69,–,19.4,58.7,-4.23,–,6.33,36.2,26.3
CC1(C)C(=O)C(C)(C)c2cc(C(=O)Nc3ccc(C(=O)O)cc3)ccc21,-4.47,-7.2,47.5,-1.52,-2.53,5.8,49.5,9.87,-2.26,–,–,–,–,–,–,–,–,–,–,–
C[C@@H]1C[C@H](C)CN(c2ncc(Cl)c(Nc3ccc4c(c3)cc(OC(C)(C)C(=O)O)c(=O)n4C)n2)C1,18.2,-6.88,69.6,7.75,8.19,17.6,73.2,19.3,-5.89,–,–,–,–,–,–,–,–,–,–,–
O=C(O)c1ccc2c(c1)nc(Nc1cccc(Cl)c1)c1ccncc12,11.4,2.18,97.5,-6.1,-9.73,17.2,-3.96,6.06,-4.62,–,–,–,–,–,–,–,–,–,–,–
C[C@@H]1CN(c2cc(-c3nn(C)c4ccc(OC5(C)CC5)cc34)ncn2)C[C@H](C)O1,-0.542,-7.86,63,4.62,1.04,15.6,67.5,–,4.71,–,34.4,-5.93,-5.15,3.32,101,-5.67,-9.65,11.8,–,–
CC(=O)Nc1nc(CN2CCC[C@H](Cc3cc(C)nc(C)c3)C2)cs1,17.8,9.23,45.8,7.98,3.85,19,81.4,13.6,1.68,–,–,–,–,–,–,–,–,–,–,–
COc1cc(-c2cn[nH]c2)ccc1C(=O)Nc1ccc2c(c1)CCNCC2,-0.48,-8.28,37.4,2.84,3.2,20.2,13.6,2.14,-5.41,–,–,–,–,–,–,–,–,–,–,–
Nc1ncc2c(n1)-c1c([nH]c3ccc(C4CC4)cc13)CCCC2,–,–,–,–,–,–,–,–,–,2.18,29.2,3.77,0.505,19.5,4.16,2.52,-1.15,3.08,–,–
O=C(NOCC1CC1)c1ccc(F)c(F)c1Nc1ccc(I)cc1Cl,–,–,–,–,–,–,–,–,–,15.4,57,-3,-7.84,8.89,41.9,-9.77,4.86,1.82,–,–
COc1ccccc1Nc1nc(-c2nn(Cc3c(F)cc(OCCCO)cc3F)c3ccccc23)ncc1OC,-2.18,–,97.1,2.87,3.85,13,57,4.46,-6.35,-4.79,39,0.477,–,10.9,54.1,-4.09,–,–,–,–
COc1ncc(-c2ccc3nccc(-c4ccnnc4)c3c2)cc1NS(=O)(=O)c1ccc(F)cc1F,–,–,–,–,–,–,–,–,–,9.15,51.7,-3.82,15.6,-0.754,24,-9.77,13.2,1.04,–,–
CCS(=O)(=O)c1cc2cc(C[C@](O)(CC(C)(C)c3ccc(F)cc3C(N)=O)C(F)(F)F)[nH]c2cn1,-1.09,0.685,97.5,-6.06,-8.14,15.9,51.2,-0.262,–,–,–,–,–,–,–,–,–,–,–,–
COc1nc2ccc([C@@](O)(c3ccc(Cl)cc3)c3cncn3C)cc2c(Cl)c1Cc1ccc(-n2cccn2)cc1,6.4,-3.26,42.9,9.26,-3.55,16.6,64.5,14.3,–,–,–,–,–,–,–,–,–,–,–,–
O=C(O)CCCc1cc2cc(Cl)ccc2n1S(=O)(=O)c1ccc2ncsc2c1,-4.2,1.34,99,-3.11,2.32,23.9,58.8,5.59,–,–,–,–,–,–,–,–,–,–,–,–
O=C(c1ccc2c(ccn2-c2ccc(F)cc2)c1)N1CC(N2CCN(C(=O)c3nccs3)CC2)C1,-6.82,-0.63,45.8,7.11,-1.76,21.1,63.5,5,–,–,–,–,–,–,–,–,–,–,–,–
